For data set [1], the system named is Hep 3B2. The data set is described as follows: Down regulation of SNX13 expression in human Hep3B cells at 1 uM after 6 to 24 hrs by L1000 expression profiling method relative to control. It is filed as functional.
Data set [2] relates to Hep 3B2. The data set is described as follows: Up regulation of ARFIP2 expression in human Hep3B cells at 1 uM after 6 to 24 hrs by L1000 expression profiling method relative to control. The format is functional.
In data set [3] the test system is Hep 3B2. The experiment in a line: Cell cycle arrest in human Hep3B cells assessed as accumulation at G0/G1 phase at 10 uM after 48 hrs in absence of curcumin by propidium iodide staining based flow cytometry (reference value: […] +/- […]%). It is filed as functional.
Data set [4] has as its system Hep 3B2. The experiment in a line: Down regulation of ARNT2 expression in human Hep3B cells at 1 uM after 6 to 24 hrs by L1000 expression profiling method relative to control. The format is functional.
Data set [5] relates to Hep 3B2. The data set is described as follows: Up regulation of RPS6KA1 expression in human Hep3B cells at 1 uM after 6 to 24 hrs by L1000 expression profiling method relative to control. It is filed as functional.
Data set [6] concerns Hep 3B2. The data set is described as follows: Down regulation of SUPV3L1 expression in human Hep3B cells at 1 uM after 6 to 24 hrs by L1000 expression profiling method relative to control. It is filed as functional.
The subject of data set [7] is Hep 3B2. The experiment in a line: Growth inhibition of human Hep3B cells at 10 uM after 48 hrs in presence of curcumin by MTT assay. The format is functional. Background: Formazan colour is commonly taken as a measure of viable cells.
For data set [8], the system named is Hep 3B2. The experiment in a line: Induction of apoptosis in human Hep3B cells assessed as ratio of cleaved caspase-3 to beta actin level at 10 uM after 48 hrs in presence of curcumin by Western blot analysis. The format is functional.
Data set [9] has as its system Hep 3B2. The data set is described as follows: Down regulation of GNA15 expression in human Hep3B cells at 1 uM after 6 to 24 hrs by L1000 expression profiling method relative to control. It is filed as functional.
The subject of data set [10] is Hep 3B2. The experiment in a line: Effect on total GSK3beta expression in human Hep3B cells assessed as ratio of GSKbeta to beta-actin level at 10 uM after 48 hrs by Western blot analysis. It is filed as cell-based. The conditions noted are these: hep 3b2, 48 h. (In general: Immunoblotting shows a protein as a band on a membrane.)
Data set [11] deals with Hep 3B2. The experiment in a line: Down regulation of ZNF586 expression in human Hep3B cells at 1 uM after 6 to 24 hrs by L1000 expression profiling method relative to control. The format is functional.
The subject of data set [12] is Hep 3B2. The data set is described as follows: Down regulation of ORC1 expression in human Hep3B cells at 1 uM after 6 to 24 hrs by L1000 expression profiling method relative to control. It is filed as functional.
In data set [13] the test system is Hep 3B2. The data set is described as follows: Down regulation of PPOX expression in human Hep3B cells at 1 uM after 6 to 24 hrs by L1000 expression profiling method relative to control. It is filed as functional.
The subject of data set [14] is Hep 3B2. The experiment in a line: Down regulation of CHAC1 expression in human Hep3B cells at 1 uM after 6 to 24 hrs by L1000 expression profiling method relative to control. It is filed as functional.
The subject of data set [15] is Hep 3B2. The data set is described as follows: Down regulation of DNMT3A expression in human Hep3B cells at 1 uM after 6 to 24 hrs by L1000 expression profiling method relative to control. The format is functional.
In data set [16] the test system is Hep 3B2. The data set is described as follows: Cell cycle arrest in human Hep3B cells assessed as accumulation at G2/M phase at 10 uM after 48 hrs in presence of curcumin by propidium iodide staining based flow cytometry (reference value: 36.6 +/- 2.9%). It is filed as functional. (A flow cytometer gives signals particle by particle.)
For data set [17], the system named is Hep 3B2. The experiment in a line: Down regulation of DUSP11 expression in human Hep3B cells at 1 uM after 6 to 24 hrs by L1000 expression profiling method relative to control. It is filed as functional.
The subject of data set [18] is Hep 3B2. The data set is described as follows: Down regulation of FAM69A expression in human Hep3B cells at 1 uM after 6 to 24 hrs by L1000 expression profiling method relative to control. It is filed as functional.
For data set [19], the system named is Hep 3B2. The experiment in a line: Cell cycle arrest in human Hep3B cells assessed as accumulation at G2/M phase at 10 uM after 48 hrs in absence of curcumin by propidium iodide staining based flow cytometry (reference value: 36.6 +/- 2.9%). It is filed as functional.
Data set [20] concerns Hep 3B2. The experiment in a line: Down regulation of PPP1R13B expression in human Hep3B cells at 1 uM after 6 to 24 hrs by L1000 expression profiling method relative to control. It is filed as functional.
Data set [21] has as its system Hep 3B2. The experiment in a line: Down regulation of TMX2-CTNND1 expression in human Hep3B cells at 1 uM after 6 to 24 hrs by L1000 expression profiling method relative to control. The format is functional.
The test system of data set [22] is Hep 3B2. The data set is described as follows: Down regulation of TGFB3 expression in human Hep3B cells at 1 uM after 6 to 24 hrs by L1000 expression profiling method relative to control. It is filed as functional.
The subject of data set [23] is Hep 3B2. The experiment in a line: Down regulation of ARL4C expression in human Hep3B cells at 1 uM after 6 to 24 hrs by L1000 expression profiling method relative to control. The format is functional.
The test system of data set [24] is Hep 3B2. The experiment in a line: Down regulation of PLEKHM1 expression in human Hep3B cells at 1 uM after 6 to 24 hrs by L1000 expression profiling method relative to control. The format is functional.
Data set [25] has as its system Hep 3B2. The experiment in a line: Down regulation of FUT1 expression in human Hep3B cells at 1 uM after 6 to 24 hrs by L1000 expression profiling method relative to control. The format is functional.
The subject of data set [26] is Hep 3B2. The experiment in a line: Cytotoxicity against human Hep3B cells at 20 uM after 24 hrs by MTT assay relative to control. The format is functional.
Data set [27] concerns Hep 3B2. The data set is described as follows: Cell cycle arrest in human Hep3B cells assessed as accumulation at G2/M phase at 40 uM after 72 hrs by propidium iodide staining based flow cytometry (reference value: 28.7 to 32.3%). The format is functional.
Data set [28] has as its system Hep 3B2. The data set is described as follows: Cell cycle arrest in human Hep3B cells assessed as accumulation at S phase at 40 uM after 72 hrs by propidium iodide staining based flow cytometry (reference value: 16.4 to 21.1%). It is filed as functional.
For data set [29], the system named is Hep 3B2. The experiment in a line: Cell cycle arrest in human Hep3B cells assessed as accumulation at G0/G1 phase at 40 uM after 72 hrs by propidium iodide staining based flow cytometry (reference value: 41.6 to 46.2%). It is filed as functional.
Data set [30] concerns Hep 3B2. The experiment in a line: Cell cycle arrest in human Hep3B cells assessed as accumulation at S phase at 2.5 uM after 48 hrs by propidium iodide staining based flow cytometry (reference value: 20.8 to 24%). The format is functional.
Data set [31] relates to Hep 3B2. The experiment in a line: Induction of autophagy in human Hep3B cells at 40 uM after 72 hrs by acridine orange staining based flow cytometry (reference value: 1.1 to 4%). It is filed as functional.
The subject of data set [32] is Hep 3B2. The experiment in a line: Cell cycle arrest in human Hep3B cells assessed as accumulation at G0/G1 phase at 40 uM after 48 hrs by propidium iodide staining based flow cytometry (reference value: 39.7 to 40.4%). It is filed as functional.
Data set [33] concerns Hep 3B2. The experiment in a line: Cell cycle arrest in human Hep3B cells assessed as accumulation at sub-G1 phase at 40 uM after 72 hrs by propidium iodide staining based flow cytometry (reference value: 0.6 to 3.3%). The format is functional.
In data set [34] the test system is Hep 3B2. The data set is described as follows: Cell cycle arrest in human Hep3B cells assessed as accumulation at S phase at 40 uM after 24 hrs by propidium iodide staining based flow cytometry (reference value: 22.6 to 27.1%). It is filed as functional.
In data set [35] the test system is Hep 3B2. The data set is described as follows: Cell cycle arrest in human Hep3B cells assessed as accumulation at G0/G1 phase at 40 uM after 24 hrs by propidium iodide staining based flow cytometry (reference value: 36.3 to 39.0%). The format is functional.
Data set [36] deals with Hep 3B2. The data set is described as follows: Cell cycle arrest in human Hep3B cells assessed as accumulation at G0/G1 phase at 5 uM after 24 hrs by propidium iodide staining based flow cytometry (reference value: 36.3 to 39.0%). The format is functional.

On to `O=C1COc2ccccc2N1Cc1cn(CCC2OCCO2)nn1`, for which the log2FC with Hep 3B2 [1] is -4.142; in the data set with Hep 3B2 [2], 3.4502; with Hep 3B2 [4], -5.0177; with Hep 3B2 [5], 3.2908; with Hep 3B2 [6] it was -4.4808; in the data set with Hep 3B2 [9] it was -4.0259. In addition, the log2FC is on record as -4.0824 in the data set with Hep 3B2 [11]; -3.3272 in the data set on Hep 3B2 [12]; -3.7552 in the data set on Hep 3B2 [13]; -4.0849 in the data set on Hep 3B2 [14]; -4.2565 with Hep 3B2 [15]; -3.3243 in the data set with Hep 3B2 [17]. The log2FC with Hep 3B2 [18] was -4.3309; in the data set with Hep 3B2 [20], -3.1647; with Hep 3B2 [21], -3.9071; with Hep 3B2 [22] it was -3.4573; in the data set with Hep 3B2 [23], -3.744; in the data set on Hep 3B2 [24], -3.9025. This compound returned a log2FC in the data set on Hep 3B2 [25] of -3.2524. Also, the Activity stood at 11.6% with Hep 3B2 [3], 44.8% with Hep 3B2 [16], 37.1% in the data set with Hep 3B2 [19] and 24.1% in the data set with Hep 3B2 [26]. Besides, the CI in the data set with Hep 3B2 [7] is on record as 0.89. The Ratio in the data set on Hep 3B2 [8] turned out to be 1.4; with Hep 3B2 [10] it was 0.8.
With `COc1ccc(CNC(=O)Nc2ncc([N+](=O)[O-])s2)cc1`, the Activity with Hep 3B2 [27] is reported as 42.8%; in the data set on Hep 3B2 [28], 13.5%; in the data set with Hep 3B2 [29], 38.5%; with Hep 3B2 [30], 23.2%; with Hep 3B2 [31], 23.3%; in the data set with Hep 3B2 [32], 34.7%. Moreover, the Activity is 5.4% in the data set with Hep 3B2 [33], 21.1% in the data set on Hep 3B2 [34], 35% in the data set on Hep 3B2 [35] and 32.5% in the data set on Hep 3B2 [36].

The record behind these values is ChEMBL document CHEMBL4024707, “Using gene expression database to uncover biology functions of 1,4-disubstituted 1,2,3-triazole analogues synthesized via a copper (I)-catalyzed reaction” (Eur J Med Chem, 2017).
